The values below come from US20260207573A1, “EFFECT OF RIVOCERANIB ON CYTOCHROME P450 ENZYME SUBSTRATES” (ELEVAR THERAPEUTICS, INC., priority 2022, published 2026).

Broadly, the AUC(0-t) is exposure summed from dosing to a finite time, without extrapolation to infinity. In general, AUC(0-inf) refers to total exposure, with the tail of the curve extrapolated. As a reminder, the Cmax is the maximum level reached in the sampled fluid or tissue.

Data set [1] deals with T1, CYP2C9 (Homo sapiens, UniProt P11712). The experiment in a line: Example 2 phase 1 drug-drug interaction study, rivoceranib 700 mg QD + 5+1 cocktail: S- and R-warfarin probe. Details: AUC(0-∞), Mean (CV %), 5 + 1 cocktail alone / AUC(0-∞), Geometric LSM, 5 + 1 cocktail alone / AUC(0-∞), Mean (CV %), Rivoceranib plus 5 + 1 cocktail / AUC(0-∞), Geometric LSM, Rivoceranib plus 5 + 1 cocktail / AUC(0-t), Mean (CV %), 5 + 1 cocktail alone / AUC(0-t), Geometric LSM, 5 + 1 cocktail alone / AUC(0-t), Mean (CV %), Rivoceranib plus 5 + 1 cocktail / AUC(0-t), Geometric LSM, Rivoceranib plus 5 + 1 cocktail: unit not given beside the values. Particulars: for AUC(0-t), Geometric LSM, Rivoceranib plus 5 + 1 cocktail / AUC(0-t), Mean (CV %), Rivoceranib plus 5 + 1 cocktail / AUC(0-∞), Geometric LSM, Rivoceranib plus 5 + 1 cocktail / AUC(0-∞), Mean (CV %), Rivoceranib plus 5 + 1 cocktail / Cmax, Geometric LSM, Rivoceranib plus 5 + 1 cocktail / Cmax, Mean (CV %), Rivoceranib plus 5 + 1 cocktail / AUC(0-t), Geometric LSM, 5 + 1 cocktail alone / AUC(0-t), Mean (CV %), 5 + 1 cocktail alone / AUC(0-∞), Geometric LSM, 5 + 1 cocktail alone / AUC(0-∞), Mean (CV %), 5 + 1 cocktail alone / Cmax, Geometric LSM, 5 + 1 cocktail alone / Cmax, Mean (CV %), 5 + 1 cocktail alone: healthy volunteers; for AUC(0-t), Geometric LSM, Rivoceranib plus 5 + 1 cocktail / AUC(0-t), Mean (CV %), Rivoceranib plus 5 + 1 cocktail / AUC(0-∞), Geometric LSM, Rivoceranib plus 5 + 1 cocktail / AUC(0-∞), Mean (CV %), Rivoceranib plus 5 + 1 cocktail / Cmax, Geometric LSM, Rivoceranib plus 5 + 1 cocktail / Cmax, Mean (CV %), Rivoceranib plus 5 + 1 cocktail: 5+1 cocktail day 11 + rivoceranib 700 mg QD days 6-15; for AUC(0-t), Geometric LSM, 5 + 1 cocktail alone / AUC(0-t), Mean (CV %), 5 + 1 cocktail alone / AUC(0-∞), Geometric LSM, 5 + 1 cocktail alone / AUC(0-∞), Mean (CV %), 5 + 1 cocktail alone / Cmax, Geometric LSM, 5 + 1 cocktail alone / Cmax, Mean (CV %), 5 + 1 cocktail alone: single oral 5+1 cocktail dose day 1, fasted; for increase in AUC0-inf when co-administered with rivoceranib / increase in Cmax when co-administered with rivoceranib: rivoceranib 700 mg. How it is done: (§1) This example describes a pharmacokinetic interaction study in healthy human volunteers dosed with 700 mg rivoceranib and a mixture of cytochrome P450 enzyme (CYP1A2, CYP2C9, CYP2C19, CYP2D6, and CYP3A) substrates.
T1 sequence (P11712 whole entry): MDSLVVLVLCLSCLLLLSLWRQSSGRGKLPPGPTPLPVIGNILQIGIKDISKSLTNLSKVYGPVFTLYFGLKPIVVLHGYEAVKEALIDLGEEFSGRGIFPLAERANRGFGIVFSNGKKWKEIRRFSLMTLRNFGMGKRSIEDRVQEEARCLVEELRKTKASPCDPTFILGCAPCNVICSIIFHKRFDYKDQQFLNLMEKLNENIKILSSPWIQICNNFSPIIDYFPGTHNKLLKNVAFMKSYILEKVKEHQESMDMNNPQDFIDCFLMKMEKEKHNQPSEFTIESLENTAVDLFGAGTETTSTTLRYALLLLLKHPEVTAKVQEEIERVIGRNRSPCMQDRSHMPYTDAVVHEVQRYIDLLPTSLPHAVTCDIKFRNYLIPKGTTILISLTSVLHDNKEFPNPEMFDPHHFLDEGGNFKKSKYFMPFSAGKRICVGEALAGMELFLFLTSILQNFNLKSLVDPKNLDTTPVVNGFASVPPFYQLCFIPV
(§2) The primary objective of the study was to evaluate the effect of rivoceranib 700 mg once daily (QD) on the pharmacokinetics (PK) of various CYP substrates to determine drug-drug interactions of rivoceranib.
(§3) This was an open-label, 2-treatment, fixed-sequence drug-drug interaction phase 1 study designed to evaluated the impact of multiple oral doses of 700 mg rivoceranib on the single-dose PK of CYP enzyme substrates administered in a 5+1 Cooperstown probe cocktail (caffeine [CYP1A2], S- and R-warfarin [CYP2C9]+vitamin K, omeprazole [CYP2C19], dextromethorphan [CYP2D6], and midazolam [CYP3A]) in healthy volunteers (N=32). On day 1, volunteers received a single dose of the 5+1 cocktail comprising 200 mg caffeine, 10 mg S- and R-warfarin with 10 mg vitamin K, 40 mg omeprazole, 30 mg dextromethorphan, and 2 mg midazolam. Blood samples were collected pre-dose on day 1 and up to 120 hours post-dose for PK analyses of the substrates in the 5+1 cocktail. On days 6 to 15, volunteers received 700 mg rivoceranib once daily for 10 consecutive days with a single dose of the 5+1 cocktail administered on day 11. Blood samples were collected pre-dose on day 11 and up to 120 hours post cocktail dosing (day 16) for PK analyses. Each dosing was under fasted conditions. There was a washout period of 5 days between day 1 dosing and the first rivoceranib dose on day 6; the 2 cocktail dosings were spaced by 10 days.

The target in data set [2] is T1, CYP2C9. The experiment in a line: Example 1 pharmacokinetic interaction study, rivoceranib 200 mg + Cooperstown 5+1 cocktail: warfarin probe.
In data set [3] the target is T2, CYP1A2 (Homo sapiens, UniProt P05177).
T2 sequence (P05177 1-516): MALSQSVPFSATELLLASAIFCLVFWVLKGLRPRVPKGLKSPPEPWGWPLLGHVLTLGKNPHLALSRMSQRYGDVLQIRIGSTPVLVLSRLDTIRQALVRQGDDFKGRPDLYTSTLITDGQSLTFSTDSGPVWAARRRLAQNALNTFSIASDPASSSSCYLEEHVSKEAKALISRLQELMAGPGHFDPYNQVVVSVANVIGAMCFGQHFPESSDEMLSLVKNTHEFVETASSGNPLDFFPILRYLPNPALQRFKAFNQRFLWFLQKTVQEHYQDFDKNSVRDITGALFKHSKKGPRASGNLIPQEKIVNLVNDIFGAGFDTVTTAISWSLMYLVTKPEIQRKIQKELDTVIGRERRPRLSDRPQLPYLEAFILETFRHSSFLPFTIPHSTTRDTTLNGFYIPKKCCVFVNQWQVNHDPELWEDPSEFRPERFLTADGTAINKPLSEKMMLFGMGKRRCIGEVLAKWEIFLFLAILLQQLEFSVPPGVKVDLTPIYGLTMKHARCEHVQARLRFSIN
The note with it: in vivo, po.

Data set [4] concerns the target T2, CYP1A2. The experiment in a line: Example 2 phase 1 drug-drug interaction study, rivoceranib 700 mg QD + 5+1 cocktail: caffeine probe. The note with it: for AUC(0-t) / AUC(0-inf) / Cmax: human, in vivo. How it is done:
as §1, §2, §3

The target in data set [5] is T3, CYP2C19 (Homo sapiens, UniProt P33261). The experiment in a line: Example 2 phase 1 drug-drug interaction study, rivoceranib 700 mg QD + 5+1 cocktail: omeprazole probe. How it is done:
as §1, §2, §3

Data set [6] has as its target T3, CYP2C19. The note with it: in vivo, po.
For data set [7] the following is noted: human, in vivo. How it is done:
as §3

Where [8] appears, read: rivoceranib 200 mg once daily, oral substrate.
Where [9] appears, read: oral, probe caffeine, Geometric LSM, Rivoceranib plus 5 + 1 cocktail, healthy volunteers, 5+1 cocktail day 11 + rivoceranib 700 mg QD days 6-15.
Setting [10] is: oral, probe caffeine, Mean (CV %), Rivoceranib plus 5 + 1 cocktail, healthy volunteers, 5+1 cocktail day 11 + rivoceranib 700 mg QD days 6-15.
Where [11] appears, read: po, probe caffeine, Geometric LSM, 5 + 1 cocktail alone, healthy volunteers, single oral 5+1 cocktail dose day 1, fasted.
The mark [12] stands for this setting: po, probe caffeine, Mean (CV %), 5 + 1 cocktail alone, healthy volunteers, single oral 5+1 cocktail dose day 1, fasted.
Where [13] appears, read: rivoceranib 700 mg QD, 100*LSM Rivoceranib Plus 5+1 Cocktail/LSM 5+1 Cocktail Alone.
Where [14] appears, read: po, Geometric LSM, 5 + 1 cocktail alone.
[15] abbreviates: po, Mean (CV %), 5 + 1 cocktail alone.

The structures appear in SMILES notation. “Also recorded” adds a separate entry of the source.

T3 sequence (P33261 whole entry): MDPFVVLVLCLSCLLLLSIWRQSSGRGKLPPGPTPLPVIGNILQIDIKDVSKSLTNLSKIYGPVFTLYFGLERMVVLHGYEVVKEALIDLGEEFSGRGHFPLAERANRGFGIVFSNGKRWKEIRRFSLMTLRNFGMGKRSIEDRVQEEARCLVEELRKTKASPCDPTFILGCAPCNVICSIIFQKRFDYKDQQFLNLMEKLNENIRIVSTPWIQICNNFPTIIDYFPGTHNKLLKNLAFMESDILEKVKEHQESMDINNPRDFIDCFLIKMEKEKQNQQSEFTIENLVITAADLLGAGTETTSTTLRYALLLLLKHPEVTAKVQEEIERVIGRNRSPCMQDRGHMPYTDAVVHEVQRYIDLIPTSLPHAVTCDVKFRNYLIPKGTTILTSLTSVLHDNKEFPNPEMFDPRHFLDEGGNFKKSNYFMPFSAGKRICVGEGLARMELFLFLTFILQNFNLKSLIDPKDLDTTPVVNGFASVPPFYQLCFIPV

Consider `CC(=O)C[C@H](c1ccccc1)c1c(O)c2ccccc2oc1=O` [R-warfarin], for which, in data set [1], the “AUC(0-t), Geometric LSM, Rivoceranib plus 5 + 1 cocktail” value was 36,090; the “AUC(0-t), Mean (CV %), Rivoceranib plus 5 + 1 cocktail” value is listed as 36,660; the “AUC(0-∞), Geometric LSM, Rivoceranib plus 5 + 1 cocktail” value is reported as 48,560; the “AUC(0-∞), Mean (CV %), Rivoceranib plus 5 + 1 cocktail” value is reported as 49,220. In data set [1], the “Cmax, Geometric LSM, Rivoceranib plus 5 + 1 cocktail” value is reported as 804.9 ng/mL; the “Cmax, Mean (CV %), Rivoceranib plus 5 + 1 cocktail” value was found to be 816.0 ng/mL; the “AUC(0-t), Geometric LSM, 5 + 1 cocktail alone” value was 29,860; the “AUC(0-t), Mean (CV %), 5 + 1 cocktail alone” value was 29,860. In data set [1], the “AUC(0-∞), Geometric LSM, 5 + 1 cocktail alone” value is 36,750; the “AUC(0-∞), Mean (CV %), 5 + 1 cocktail alone” value is on record as 36,750; the “Cmax, Geometric LSM, 5 + 1 cocktail alone” value stood at 701.2 ng/mL; the “Cmax, Mean (CV %), 5 + 1 cocktail alone” value is 701.2 ng/mL. In addition, in data set [1], the “increase in AUC0-inf when co-administered with rivoceranib” value is 32% and the “increase in Cmax when co-administered with rivoceranib” value worked out at 15%. For the same compound, in data set [2] (rivoceranib 200 mg daily, plasma, FIG. 4 and Table 5), the “levels on coadministration with rivoceranib” value is “relatively unaffected”.
`CC(=O)C[C@@H](c1ccccc1)c1c(O)c2ccccc2oc1=O` [S-warfarin]: in data set [1], the “AUC(0-t), Geometric LSM, Rivoceranib plus 5 + 1 cocktail” value was 28,490; the “AUC(0-t), Mean (CV %), Rivoceranib plus 5 + 1 cocktail” value is reported as 28,920; the “AUC(0-∞), Geometric LSM, Rivoceranib plus 5 + 1 cocktail” value was 34,670; the “AUC(0-∞), Mean (CV %), Rivoceranib plus 5 + 1 cocktail” value is given as 34,780. Also, in data set [1], the “Cmax, Geometric LSM, Rivoceranib plus 5 + 1 cocktail” value is recorded as 832.5 ng/mL; the “Cmax, Mean (CV %), Rivoceranib plus 5 + 1 cocktail” value was found to be 840.2 ng/mL; the “AUC(0-t), Geometric LSM, 5 + 1 cocktail alone” value came out at 18.880; the “AUC(0-t), Mean (CV %), 5 + 1 cocktail alone” value was 18,880. For the same compound, in data set [1], the “AUC(0-∞), Geometric LSM, 5 + 1 cocktail alone” value is 20,640; the “AUC(0-∞), Mean (CV %), 5 + 1 cocktail alone” value is 20,640; the “Cmax, Geometric LSM, 5 + 1 cocktail alone” value is recorded as 701.1 ng/mL; the “Cmax, Mean (CV %), 5 + 1 cocktail alone” value is recorded as 701.1 ng/mL. In data set [1], the “increase in AUC0-inf when co-administered with rivoceranib” value amounted to 68% and the “increase in Cmax when co-administered with rivoceranib” value amounted to 19%. Moreover, in data set [2] (setting [8]), the “increase in AUC0-∞ with coadministration with rivoceranib” value came out at 28% and the “increase in Cmax with coadministration with rivoceranib” value is reported as 5%.
Regarding `Cn1c(=O)c2c(ncn2C)n(C)c1=O` [caffeine], in data set [3], the “AUC(0-t), Geometric LS Mean, Cooperstown Cocktail Alone” value (“AUC(0-t), Geometric LS Mean” below) came out at 10.6274; the “AUC(0-∞), Geometric LS Mean, Cooperstown Cocktail Alone” value (shortened to “AUC(0-∞), Geometric LS Mean”) worked out at 10.6463; the “Cmax, Geometric LS Mean, Cooperstown Cocktail Alone” value (“Cmax, Geometric LS Mean” for short) worked out at 8.4984. In addition, in data set [4] (setting [9]), the exposure AUC(0-t) was 43200 ng·h/mL, the AUC(0-inf) was determined as 45400 ng·h/mL and the highest concentration (Cmax) was 5210 ng/mL. For the same compound, in data set [4] (setting [10]), the AUC(0-t) worked out at 44500 ng·h/mL, the area under the curve AUC(0-inf) is 47600 ng·h/mL and the Cmax was found to be 5330 ng/mL. The AUC(0-t) in data set [4] (po, 200 mg, probe caffeine, Geometric LSM, 5 + 1 cocktail alone, healthy volunteers, single oral 5+1 cocktail dose day 1, fasted) was determined as 52600 ng·h/mL. For the same compound, the AUC(0-t) in data set [4] (po, 200 mg, probe caffeine, Mean (CV %), 5 + 1 cocktail alone, healthy volunteers, single oral 5+1 cocktail dose day 1, fasted) amounted to 52600 ng·h/mL. Moreover, in data set [4] (setting [11]), the AUC(0-inf) was 53400 ng·h/mL and the Cmax was 5190 ng/mL. Besides, in data set [4] (setting [12]), the total exposure AUC(0-inf) was 53400 ng·h/mL and the Cmax came to 5190 ng/mL. In data set [4] (rivoceranib 700 mg QD), the “change of Cmax with rivoceranib” value is “relatively unchanged; also recorded: did not change” and the “reduction of AUC0-inf by rivoceranib” value is reported as 15%. In addition, in data set [4] (setting [13]), the “AUC(0-∞), Geometrical mean Ratio, % (90% CI)” value was 84.87% and the “Cmax, Geometrical mean Ratio, % (90% CI)” value is recorded as 100.41%.
For `COc1ccc2[nH]c([S+]([O-])Cc3ncc(C)c(OC)c3C)nc2c1` (stereo not drawn) [omeprazole], in data set [5] (rivoceranib 700 mg), the “increase in AUC0-inf with rivoceranib” value is listed as 3.3 fold and the “increase in Cmax with rivoceranib” value came out at 2 fold. Besides, in data set [5] (setting [13]), the “AUC(0-t), Geometrical mean Ratio, % (90% CI)” value amounted to 259.87%; the “AUC(0-∞), Geometrical mean Ratio, % (90% CI)” value is 272.50%; the “Cmax, Geometrical mean Ratio, % (90% CI)” value was determined as 198.80%. Besides, in data set [6], the “AUC(0-t), Geometric LS Mean” value was found to be 7.3711; the “AUC(0-∞), Geometric LS Mean” value is 7.5365; the “Cmax, Geometric LS Mean” value came out at 6.3720.
For the compound `Cn1c(=O)[nH]c2ncn(C)c2c1=O` [paraxanthine], in data set [3], the “AUC(0-t), Geometric LS Mean” value came to 10.0780; the “AUC(0-∞), Geometric LS Mean” value is given as 10.1025; the “Cmax, Geometric LS Mean” value was 7.1157. For the same compound, in data set [4] (setting [14]), the AUC(0-t) turned out to be 31000 ng·h/mL, the area under the curve AUC(0-inf) is 31700 ng·h/mL and the Cmax came out at 1440 ng/mL. In data set [4] (setting [15]), the AUC(0-t) turned out to be 31000 ng·h/mL, the AUC(0-inf) was 28700 ng·h/mL and the Cmax stood at 1440 ng/mL.
As for `N#CC1(c2ccc(NC(=O)c3cccnc3NCc3ccncc3)cc2)CCCC1` [rivoceranib, N-[4-(1-cyanocyclopentyl)phenyl]-2-{[(pyridin-4-yl)methyl]amino}pyridine-3-carboxamide], in data set [7], the “volunteers who had a TEAE (number)” value stood at 16 and the “volunteers who had a TEAE (percent)” value amounted to 53.30%.
